{"source": "patent US7056913B2", "about": "“C8—linked pyrrolo[2,1-c][1,4]benzodiazepine-acridone/acridine hybrids” (Council of Scientific and Industrial Research, priority 2004, dated 2006)", "key": {"Breast cancer cell lines": {"tested_on": "Breast cancer cell lines", "assay": "NCI in vitro cytotoxicity, SRB assay, cancer type average", "format": "cell-based, human", "conditions": "average of six to nine cell lines", "procedure": "(§1) Cytotoxicity: 7-methoxy-8-[3′-(4″-acridonylcarboxamido)propyl]-oxy-(11aS)1,2,3,11a-tetrahydro-5H-pyrrolo[2,1-c][1,4]benzodiazepin-5-one of formula IV was evaluated for primary anti-cancer activity (Table 1) and in vitro against sixty human tumour cells derived from nine cancer types (leukemia, non-small-cell lung, colon, CNS, melanoma, ovarian, prostate, and breast cancer). For each compound, dose response curves for each cell line were measured at a minimum of five concentrations at 10 fold dilutions. A protocol of 48 h continuous drug expose was used and a sulforhodamine B (SRB) protein assay was used to estimate cell viability or growth. The concentration causing 50% cell growth inhibition (GI50), total cell growth inhibition (TGI, 0% growth) and 50% cell death (LC50, −50% growth) compared with the control was calculated.\n(§2) Each cancer type represents the average of six to nine different cancer cell lines."}, "Renal cancer cell lines": {"tested_on": "Renal cancer cell lines", "assay": "NCI in vitro cytotoxicity, SRB assay, cancer type average", "format": "cell-based, human", "conditions": "average of six to nine cell lines", "procedure": "as §1, §2"}, "[1]": {"tested_on": "Ovarian cancer cell lines", "assay": "NCI in vitro cytotoxicity, SRB assay, cancer type average", "format": "cell-based, human", "conditions": "average of six to nine cell lines", "procedure": "as §1, §2"}, "Colon cancer cell lines": {"tested_on": "Colon cancer cell lines", "assay": "NCI in vitro cytotoxicity, SRB assay, cancer type average", "format": "cell-based, human", "conditions": "average of six to nine cell lines", "procedure": "as §1, §2"}, "[2]": {"tested_on": "non-small-cell lung cancer cell lines", "assay": "NCI in vitro cytotoxicity, SRB assay, cancer type average", "format": "cell-based, human", "conditions": "average of six to nine cell lines", "procedure": "as §1, §2"}, "[3]": {"tested_on": "Melanoma cancer cell lines", "assay": "NCI in vitro cytotoxicity, SRB assay, cancer type average", "format": "cell-based, human", "conditions": "average of six to nine cell lines", "procedure": "as §1, §2"}, "CNS cancer cell lines": {"tested_on": "CNS cancer cell lines", "assay": "NCI in vitro cytotoxicity, SRB assay, cancer type average", "format": "cell-based, human", "conditions": "average of six to nine cell lines", "procedure": "as §1, §2"}, "NCI-H460 (Lung)": {"tested_on": "NCI-H460 (Lung)", "assay": "In vitro one dose primary anticancer assay", "format": "cell-based, human", "conditions": "one dose at 10^−4 molar concentration", "procedure": "as §1"}, "SF-268 (CNS)": {"tested_on": "SF-268 (CNS)", "assay": "In vitro one dose primary anticancer assay", "format": "cell-based, human", "conditions": "one dose at 10^−4 molar concentration", "procedure": "as §1"}, "MCF7 (Breast)": {"tested_on": "MCF7 (Breast)", "assay": "In vitro one dose primary anticancer assay", "format": "cell-based, human", "conditions": "one dose at 10^−4 molar concentration", "procedure": "as §1"}, "sixty human tumour cells": {"tested_on": "sixty human tumour cells", "assay": "NCI in vitro cytotoxicity, SRB assay, mean graph midpoints", "format": "cell-based", "conditions": "48 h continuous drug exposure", "procedure": "as §1"}, "colon cancer (HCC-2998)": {"tested_on": "colon cancer (HCC-2998)", "assay": "NCI in vitro cytotoxicity, SRB assay", "format": "cell-based, human", "conditions": "HCC-2998 colon; read-out: potency at the LC50 level", "procedure": "as §1"}, "CNS cancer (SNB-75)": {"tested_on": "CNS cancer (SNB-75)", "assay": "NCI in vitro cytotoxicity, SRB assay", "format": "cell-based, human", "conditions": "SNB-75 CNS; read-out: potency at the LC50 level", "procedure": "as §1"}, "[4]": {"tested_on": "melanoma cancer (UACC-62)", "assay": "NCI in vitro cytotoxicity, SRB assay", "format": "cell-based, human", "conditions": "UACC-62 melanoma; read-out: potency at the LC50 level", "procedure": "as §1"}, "[5]": {"tested_on": "breast cancer (MDA-MB-435)", "assay": "NCI in vitro cytotoxicity, SRB assay", "format": "cell-based, human", "conditions": "MDA-MB-435 breast; read-out: potency at the LC50 level", "procedure": "as §1"}, "renal cancer (SN12C)": {"tested_on": "renal cancer (SN12C)", "assay": "NCI in vitro cytotoxicity, SRB assay", "format": "cell-based, human", "conditions": "read-out: potency at the LC50 level", "procedure": "as §1"}, "[6]": {"tested_on": "melanoma cancer cell line M14", "assay": "NCI in vitro cytotoxicity, SRB assay", "format": "cell-based, human", "conditions": "read-out: potency at the LC50 level", "procedure": "as §1"}, "[7]": {"tested_on": "melanoma cancer cell line LOXIMVI", "assay": "NCI in vitro cytotoxicity, SRB assay", "format": "cell-based, human", "conditions": "read-out: potency at the LC50 level", "procedure": "as §1"}}}
{"compound": "COc1cc2c(cc1OCCCNC(=O)c1cccc3c(=O)c4ccccc4[nH]c13)N=C[C@@H]1CCCN1C2=O", "note": "[Compound IV, 7-methoxy-8-[3′-(4″-acridonylcarboxamido)propyl]-oxy-(11aS)1,2,3,11a-tetrahydro-5H-pyrrolo[2,1-c][1,4]benzodiazepin-5-one]", "values": [{"measurement": "Log LC50 (concentration in mol/L causing 50% lethality)", "setting": "Breast cancer cell lines", "result": "−4.40", "unit": "mol/L"}, {"measurement": "Log LC50 (concentration in mol/L causing 50% lethality)", "setting": "Renal cancer cell lines", "result": "−4.27", "unit": "mol/L"}, {"measurement": "Log LC50 (concentration in mol/L causing 50% lethality)", "setting": "[1]", "result": "−4.012 log(mol/L)"}, {"measurement": "Log LC50 (concentration in mol/L causing 50% lethality)", "setting": "Colon cancer cell lines", "result": "−4.33", "unit": "mol/L"}, {"measurement": "Log LC50 (concentration in mol/L causing 50% lethality)", "setting": "[2]", "result": "−4.14 log10(mol/L)"}, {"measurement": "Log LC50 (concentration in mol/L causing 50% lethality)", "setting": "[3]", "result": "−5.09", "unit": "mol/L"}, {"measurement": "Log LC50 (concentration in mol/L causing 50% lethality)", "setting": "CNS cancer cell lines", "result": "−4.425", "unit": "mol/L"}, {"measurement": "Growth percentages (Lung) NCI-H460", "setting": "NCI-H460 (Lung)", "result": 0, "unit": "%"}, {"measurement": "Growth percentages (CNS) SF-268", "setting": "SF-268 (CNS)", "result": 10, "unit": "%"}, {"measurement": "Growth percentages (Breast) MCF7", "setting": "MCF7 (Breast)", "result": 0, "unit": "%"}, {"measurement": "Log10 LC50 mean graph midpoint (MG_MID)", "setting": "sixty human tumour cells; 50% cell death", "result": "−4.32"}, {"measurement": "Log10 GI50 mean graph midpoint (MG_MID)", "setting": "sixty human tumour cells; 50% cell growth inhibition", "result": "−7.73"}, {"measurement": "Log10 TGI mean graph midpoint (MG_MID)", "setting": "sixty human tumour cells; total cell growth inhibition", "result": "−5.56"}, {"measurement": "LC50 (concentration killing 50% of cells)", "setting": "colon cancer (HCC-2998)", "result": 100, "unit": "nM"}, {"measurement": "LC50 (concentration causing 50% cell death)", "setting": "CNS cancer (SNB-75)", "result": 100, "unit": "nM"}, {"measurement": "LC50 (concentration causing 50% cell death)", "setting": "[4]", "result": "< 10", "unit": "nM"}, {"measurement": "CC50", "setting": "[5]", "result": 100, "unit": "nM"}, {"measurement": "LC50 (concentration causing 50% cell death)", "setting": "renal cancer (SN12C)", "result": "> 10000", "unit": "nM"}, {"measurement": "LC50", "setting": "[6]", "result": "> 10000", "unit": "nM"}, {"measurement": "CC50", "setting": "[7]", "result": "> 10000", "unit": "nM"}]}
